Values of other authors as cited in patent US20250302889A1, “Ingestible Nutritive Compositions With Prebiotics, Probiotics, and Postbiotics” (First Day Life, Inc., priority 2024, published 2025).

Legend:
[1] = 24 hours after injection, vs carrageenan control group
[2] = 24 hours after injection, vs carrageenan control group; remark: listed apart in the source
[3] = 24 hours; probiotics 10^8 CFUs, diclofenac sodium 150 mg/kg, single dose

Compound: O=C(O)Cc1ccccc1Nc1c(Cl)cccc1Cl [diclofenac sodium]
- motility test score [1]: scored significantly higher
- stair climbing activity (steps climbed) [2]: climbed significantly more steps
- inhibition of edema [3]: about 34%
